# Assay results reported in patent US20050245527A1, “Nitrogen containing heterocyclic compounds and medicines containing the same” (priority 2002, published 2005).
# Key:
# [1] = tested on: left saphenous nerve of rats (ectopic firing); test: Inhibition of ectopic firing; assay type: in vivo; settings: Rattus norvegicus, iv; rats with cut left saphenous nerve, urethane anesthesia, compound via catheter in right cervical vein, number of firings in 10 seconds; read-out: Inhibition of ectopic firing (ID50)
# Experimental: <Inhibition of Ectopic Firing>
# (1) The inhibitory effect on ectopic firing was evaluated by the following method, with reference to Burchiel, K J., Exp. Neurol., 102, 249-253 (1988).
# (2) The left saphenous nerve of rats, in which ectopic firing was observed, was cut near the knee joint, and approximately 3 mm was cut off to avoid reattachment of the cut nerve. After more than a week, the left saphenous nerve was exposed under urethane (1 g/kg body weight) anesthesia, and the proximal part up to approximately 1 cm from the cut site was detached from the surrounding tissue. A catheter was inserted in the right cervical vein beforehand for administration of the compound.
# (3) The detached nerve was placed on a platinum hook electrode and wetted with liquid paraffin to avoid drying of the nerve. The electrode was connected to a microelectrode amplifier, and the change in potential was recorded from an oscilloscope through an A/D converter onto a computer. The recorded nerve firing was evaluated based on the number of firings in 10 seconds, using analyzing software (AcqKnowledge).
# sodium channels = assay type: cell-based; settings: read-out: IC50 (μM), sodium channel-inhibiting activity; rat fetal cultured hippocampal neurons, SBFI fluorescence in the presence of 4-aminopyridine, 5 minutes after addition, 1 μM tetrodotoxin = 100%
SMILES,ED50 [1],IC50 (sodium channels)
"C[C@H]1C[C@@H](C(=O)Cc2ccccc2F)CCN1Cc1ncc[nH]c1=O (relative stereo) [Example 415, cis-3-[4-[2-(2-Fluorophenyl)acetyl]-2-methylpiperidino]methyl-1H-pyrazin-2-one]",< 0.5 mg/kg,4.6 µM
"O=c1[nH]cccc1CN1CCC(F)(COc2ccccc2F)CC1 [Example 124, 3-[4-Fluoro-4-(2-fluorophenoxymethyl)piperidino]methyl-1H-pyridin-2-one]",< 0.5 mg/kg,7.8 µM
"O=c1[nH]cccc1CN1CC2CCCC(C1)C2/C=C/c1ccccc1F (stereo not drawn) [Example 129, anti-(E)-3-[9-[2-(2-Fluorophenyl)vinyl]-3-azabicyclo[3.3.1]non-3-yl]methyl-1H-pyridin-2-one]",0.5 to 1 mg/kg,2.1 µM
"O=C(O)C(=O)O.O=c1[nH]ccnc1CN1CCC(COc2ccccc2F)C1 (stereo not drawn) [Example 132, 3-[3-(2-Fluorophenoxymethyl)pyrrolidino]methyl-1H-pyrazin-2-one oxalate]",0.5 to 1 mg/kg,6.2 µM
"O=c1[nH]ccnc1CN1CCC(CCc2ccccc2F)C1 (stereo not drawn) [Example 134, 3-[3-[2-(2-Fluorophenyl)ethyl]pyrrolidino]methyl-1H-pyrazin-2-one]",0.5 to 1 mg/kg,3.1 µM
"COc1ccccc1CCC1CCN(Cc2ncc[nH]c2=O)C1.O=C(O)C(=O)O (stereo not drawn) [Example 135, 3-[3-[2-(2-Methoxyphenyl)ethyl]pyrrolidino]methyl-1H-pyrazin-2-one oxalate]",< 0.5 mg/kg,4 µM
"Cc1ccccc1OCC1CCN(Cc2ncc[nH]c2=O)C1.O=C(O)C(=O)O (stereo not drawn) [Example 136, 3-[3-(2-Methylphenoxymethyl)pyrrolidino]methyl-1H-pyrazin-2-one oxalate]",0.5 to 1 mg/kg,4.7 µM
"O=c1[nH]ccnc1CN1CCC(CCc2cccc3c2OCC3)CC1 [Example 140, 3-[4-[2-(2,3-Dihydrobenzofuran-7-yl)ethyl]piperidino]methyl-1H-pyrazin-2-one]",< 0.5 mg/kg,5.6 µM
"O=c1[nH]ccnc1CN1CCC(COc2ccccc2F)CC1 [Example 142, 3-[4-(2-Fluorophenoxymethyl)piperidino]methyl-1H-pyrazin-2-one]",< 0.5 mg/kg,4.2 µM
"COc1ccccc1OCC1CCN(Cc2ncc[nH]c2=O)CC1 [Example 143, 3-[4-(2-Methoxyphenoxymethyl)piperidino]methyl-1H-pyrazin-2-one]",< 0.5 mg/kg,3.1 µM
"COc1ccccc1C(=O)CC1CCN(Cc2ncc[nH]c2=O)CC1 [Example 145, 3-[4-[2-(2-Methoxyphenyl)-2-oxoethyl]piperidino]methyl-1H-pyrazin-2-one]",0.5 to 1 mg/kg,9.5 µM
"O=c1[nH]ccnc1CN1CCC(CCc2cccc3ccoc23)CC1 [Example 146, 3-[4-[2-(Benzofuran-7-yl)ethyl]piperidino]methyl-1H-pyrazin-2-one]",< 0.5 mg/kg,2 µM
"Cc1ccccc1OCC1CCN(Cc2ncc[nH]c2=O)CC1 [Example 147, 3-[4-(2-Methylphenoxymethyl)piperidino]methyl-1H-pyrazin-2-one]",< 0.5 mg/kg,2.5 µM
"O=c1[nH]ccnc1CN1CCC(COc2cc(F)ccc2F)CC1 [Example 151, 3-[4-(2,5-Difluorophenoxymethyl)piperidino]methyl-1H-pyrazin-2-one]",0.5 to 1 mg/kg,2.9 µM
"Cc1ccccc1COC1CCN(Cc2ncc[nH]c2=O)CC1 [Example 152, 3-[4-(2-Methylbenzyloxy)piperidino]methyl-1H-pyrazin-2-one]",0.5 to 1 mg/kg,5.3 µM
"Cc1cccc(OCC2CCN(Cc3ncc[nH]c3=O)CC2)c1 [Example 153, 3-[4-(3-Methylphenoxymethyl)piperidino]methyl-1H-pyrazin-2-one]",0.5 to 1 mg/kg,4.1 µM

SMILES,ED50 [1],IC50 (sodium channels)
"Cc1ccccc1OCC1CCCN(Cc2ncc[nH]c2=O)C1 (stereo not drawn) [Example 154, 3-[3-(2-Methylphenoxymethyl)piperidino]methyl-1H-pyrazin-2-one]",0.5 to 1 mg/kg,3.1 µM
"O=c1[nH]ccnc1CN1CCCC(CCc2ccccc2F)C1 (stereo not drawn) [Example 156, 3-[3-[2-(2-Fluorophenyl)ethyl]piperidino]methyl-1H-pyrazin-2-one]",0.5 to 1 mg/kg,4.5 µM
"Cc1ccsc1/C=C/C1CCN(Cc2ncc[nH]c2=O)CC1 [Example 157, (E)-3-[4-[2-(3-Methyl-2-thienyl)vinyl]piperidino]methyl-1H-pyrazin-2-one]",< 0.5 mg/kg,3.6 µM
"O=c1[nH]ccnc1CN1CCC(COc2ccccc2Cl)CC1 [Example 158, 3-[4-(2-Chlorophenoxymethyl)piperidino]methyl-1H-pyrazin-2-one]",< 0.5 mg/kg,3.7 µM
"O=c1[nH]ccnc1CN1CCC(COCc2ccccc2F)CC1 [Example 160, 3-[4-(2-Fluorobenzyloxymethyl)piperidino]methyl-1H-pyrazin-2-one]",0.5 to 1 mg/kg,3.5 µM
"O=c1[nH]ccnc1CN1CCC(COc2cccc(F)c2)CC1 [Example 162, 3-[4-(3-Fluorophenoxymethyl)piperidino]methyl-1H-pyrazin-2-one]",0.5 to 1 mg/kg,4.6 µM
"O=c1[nH]ccnc1CN1CCC(COc2ccccc2C(F)(F)F)CC1 [Example 164, 3-[4-[2-(Trifluoromethyl)phenoxymethyl]piperidino]methyl-1H-pyrazin-2-one]",< 0.5 mg/kg,3.3 µM
"O=c1[nH]ccnc1CN1CCC(COc2ccccc2OC(F)(F)F)CC1 [Example 167, 3-[4-[2-(Trifluoromethoxy)phenoxymethyl]piperidino]methyl-1H-pyrazin-2-one]",< 0.5 mg/kg,2.3 µM
"O=c1[nH]ccnc1CN1CCC(/C=C/c2sccc2Cl)CC1 [Example 168, (E)-3-[4-[2-(3-Chloro-2-thienyl)vinyl]piperidino]methyl-1H-pyrazin-2-one]",0.5 to 1 mg/kg,2.1 µM
"O=C(CC1CCN(Cc2ncc[nH]c2=O)CC1)c1sccc1Cl [Example 169, 3-[4-[2-(3-Chloro-2-thienyl)-2-oxoethyl]piperidino]methyl-1H-pyrazin-2-one]",0.5 to 1 mg/kg,3.5 µM
"O=C(Cc1ccccc1F)C1CCN(CCc2cncc(=O)[nH]2)CC1 [Example 237, 6-[2-[4-[2-(2-Fluorophenyl)acetyl]piperidino]ethyl]-1H-pyrazin-2-one]",0.5 to 1 mg/kg,
"O=c1cncc(CCN2CCC(COc3ccc(F)cc3)CC2)[nH]1 [Example 246, 6-[2-[4-(4-Fluorophenoxymethyl)piperidino]ethyl]-1H-pyrazin-2-one]",0.5 to 1 mg/kg,
"Cc1ccccc1OCC1(O)CCN(Cc2ccc[nH]c2=O)CC1 [Example 252, 3-[4-Hydroxy-4-(2-methylphenoxymethyl)piperidino]methyl-1H-pyridin-2-one]",0.5 to 1 mg/kg,
"O=c1[nH]cccc1CN1CCC(CCc2ccccc2)(COc2ccccc2F)CC1 [Example 257, 3-[4-(2-Fluorophenoxymethyl)-4-(2-phenylethyl)piperidino]methyl-1H-pyridin-2-one]",< 0.5 mg/kg,
"Cc1ccccc1C#CC1(O)CCN(Cc2ccc[nH]c2=O)CC1 [Example 259, 3-[4-Hydroxy-4-[(2-methylphenyl)ethynyl]piperidino]methyl-1H-pyridin-2-one]",< 0.5 mg/kg,
